ChEMBL document CHEMBL5726312, “TYK2 inhibitors and uses thereof” (2019)

Target: Non-receptor tyrosine-protein kinase TYK2 (Homo sapiens, UniProt P29597)
Experiment: Tyk2 & JAK2 Caliper Assay: The caliper machine employs an off chip mobility shift assay to detect phosphorylated peptide substrates from kinase assays, using microfluidics technology. The assays are carried out at ATP concentration equivalent to the ATP Km, and at 1 mM ATP. Compounds are serially diluted in DMSO then further diluted in assay buffer (25 mM HEPES, pH 7.5, 0.01% Brij-35, 0.01% Triton, 0.5 mM EGTA). 5 ul of diluted compound was added into wells first, then 10 ul of enzyme mix was added into wells, followed by 10 uL of substrate mix (peptide and ATP in 10 mM MgCl2) to start reaction. Reaction was incubated at 28° C. for 25 min and then added 25 ul stop buffer (100 mM HEPES, 0.015% Brij-35, 50 mM EDTA), followed by reading with Caliper. JAK2 at 1 nM final concentration and TYK2 at 9.75 nM are from Carna, and substrates used are ATP at 20 and 16 uM, respectively. JAK2 assay uses peptide 22 and TYK2 uses peptide 30 (Caliper), each at 3 uM.

Non-receptor tyrosine-protein kinase TYK2, sequence (P29597 whole entry): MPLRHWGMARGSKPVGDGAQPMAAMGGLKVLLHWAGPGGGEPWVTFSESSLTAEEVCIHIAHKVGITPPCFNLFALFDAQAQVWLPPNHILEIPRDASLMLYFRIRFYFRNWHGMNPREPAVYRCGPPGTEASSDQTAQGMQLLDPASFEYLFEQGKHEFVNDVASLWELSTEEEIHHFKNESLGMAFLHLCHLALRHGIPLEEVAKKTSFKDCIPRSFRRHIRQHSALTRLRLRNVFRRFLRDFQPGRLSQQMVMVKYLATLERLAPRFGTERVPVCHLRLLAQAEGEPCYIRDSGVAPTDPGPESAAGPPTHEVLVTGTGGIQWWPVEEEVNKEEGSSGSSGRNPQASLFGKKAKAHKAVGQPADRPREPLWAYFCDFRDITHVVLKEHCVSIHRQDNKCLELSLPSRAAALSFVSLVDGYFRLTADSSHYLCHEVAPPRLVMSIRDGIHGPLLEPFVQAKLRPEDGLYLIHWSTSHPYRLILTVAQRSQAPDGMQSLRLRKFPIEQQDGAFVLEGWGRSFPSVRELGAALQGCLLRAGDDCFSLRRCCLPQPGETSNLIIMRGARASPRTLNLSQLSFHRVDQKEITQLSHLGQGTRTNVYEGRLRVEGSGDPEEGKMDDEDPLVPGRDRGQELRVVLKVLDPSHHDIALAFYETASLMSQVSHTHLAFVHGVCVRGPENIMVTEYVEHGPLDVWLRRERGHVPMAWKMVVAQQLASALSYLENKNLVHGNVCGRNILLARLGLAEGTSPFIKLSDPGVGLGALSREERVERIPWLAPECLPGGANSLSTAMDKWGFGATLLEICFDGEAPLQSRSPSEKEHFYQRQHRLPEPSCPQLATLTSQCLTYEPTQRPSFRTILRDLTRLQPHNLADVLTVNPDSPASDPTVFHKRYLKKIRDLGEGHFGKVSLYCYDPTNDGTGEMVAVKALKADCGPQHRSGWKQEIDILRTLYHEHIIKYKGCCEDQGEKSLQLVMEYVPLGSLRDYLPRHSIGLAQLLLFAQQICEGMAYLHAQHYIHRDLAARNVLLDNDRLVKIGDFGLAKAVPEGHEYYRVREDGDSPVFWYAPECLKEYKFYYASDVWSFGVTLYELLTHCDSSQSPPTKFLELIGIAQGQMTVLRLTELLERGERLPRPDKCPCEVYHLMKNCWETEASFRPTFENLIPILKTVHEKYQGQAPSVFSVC

Ki [µM] | SMILES
< 0.01 | CC1(c2ccc(Nc3nc(-c4c(F)cccc4F)nc4c3C(=O)NC4)cc2)COC1
< 0.01 | CC1(C)CCCC(=O)N1c1ccc(Nc2cc(-c3c(F)cccc3F)nc3c2C(=O)NC3)nc1
< 0.01 | O=C1NCc2nc(-c3c(F)cccc3F)cc(Nc3ccc(N4CCCC(O)C4)cn3)c21 (stereo not drawn)
< 0.01 | O=C1NCc2nc(-c3c(F)cccc3F)cc(Nc3ccc(C4(O)CCOCC4)cn3)c21
< 0.01 | CC1(C)CCC(=O)N1c1ccc(Nc2cc(-c3c(F)cccc3F)nc3c2C(=O)NC3)nc1
< 0.01 | O=C1NCc2nc(-c3c(F)cccc3F)cc(Nc3ccc(N4CCC[C@H](O)C4)cn3)c21
< 0.01 | O=C1NCc2nc(-c3c(F)cccc3F)cc(Nc3ccc(N4CCC5(CC5)C4)cn3)c21
< 0.01 | CCNC(=O)c1ccc(Nc2cc(-c3c(F)cccc3F)nc3c2C(=O)NC3)cn1
< 0.01 | CC1(O)CCN(C(=O)c2ccc(Nc3cc(-c4c(F)cccc4F)nc4c3C(=O)NC4)cc2)CC1
< 0.01 | CC1(C)CN(c2ccc(Nc3cc(-c4c(F)cccc4F)nc4c3C(=O)NC4)nc2)CC[C@@H]1O
< 0.01 | CCN(CC)C(=O)c1ccc(Nc2cc(-c3c(F)cccc3F)nc3c2C(=O)NC3)cc1
< 0.01 | O=C1NCc2nc(-c3c(F)cccc3F)cc(Nc3ccc(N4CCOCC4)nc3)c21
< 0.01 | CC1(C)CCN(c2ccc(Nc3cc(-c4c(F)cccc4F)nc4c3C(=O)NC4)nc2)CC1
< 0.01 | CC(C)(C)Nc1ccc(Nc2cc(-c3c(F)cccc3F)nc3c2C(=O)NC3)nc1
< 0.01 | O=C1NCc2nc(-c3c(F)cccc3F)cc(Nc3ccc(F)cc3)c21
< 0.01 | CC(C)N1CCN(C(=O)c2ccc(Nc3cc(-c4c(F)cccc4F)nc4c3C(=O)NC4)cc2)CC1
< 0.01 | N#Cc1cccc(F)c1-c1cc(Nc2ccc(C(=O)N3CCOCC3)cc2)c2c(n1)CNC2=O
< 0.01 | O=C1NCc2nc(-c3c(F)cccc3F)cc(Nc3ccc(C(=O)N4CCC(F)(F)CC4)cc3)c21
< 0.01 | C[C@@H]1COC[C@@H](C)N1C(=O)c1ccc(Nc2cc(-c3c(F)cccc3F)nc3c2C(=O)NC3)cc1
< 0.01 | O=C1NCc2nc(-c3c(F)cccc3F)cc(Nc3ccc(C(=O)N4CCCCC4)cc3)c21
< 0.01 | O=C1NCc2nc(-c3c(F)cccc3F)cc(Nc3ccc(N4CCCOCC4)cn3)c21
< 0.01 | O=C1NCc2nc(-c3c(F)cccc3F)cc(Nc3ccc(N4CCCC4)cn3)c21

Second part, the compound before the results:

SMILES | Ki [µM]
O=C1NCc2nc(-c3c(F)cccc3F)cc(Nc3ccc(C(=O)N4CCOCC4)cn3)c21 | < 0.01
CCNC(=O)c1ccc(Nc2cc(-c3c(F)cccc3C#N)nc3c2C(=O)NC3)nc1 | < 0.01
O=C1NCc2nc(-c3c(F)cccc3F)cc(Nc3ccc(N4CCOCC4=O)cn3)c21 | < 0.01
CCNC(=O)c1ccc(Nc2cc(-c3c(F)cccc3Cl)nc3c2C(=O)NC3)nc1 | < 0.01
CC1CC(O)CC(C)N1c1ccc(Nc2cc(-c3c(F)cccc3F)nc3c2C(=O)NC3)nc1 (stereo not drawn) | < 0.01
O=C1NCc2nc(-c3c(F)cccc3F)cc(Nc3ccc(N4CC(F)(F)C4)cn3)c21 | < 0.01
O=C1NCc2nc(-c3c(F)cccc3F)cc(Nc3ccc(F)cn3)c21 | < 0.01
CC[C@@]1(c2ccc(Nc3nc(-c4c(F)cccc4F)nc4c3C(=O)NC4)cc2)CCNC1=O | < 0.01
O=C1NCc2nc(-c3c(F)cccc3F)cc(Nc3ccc(C4=CCOCC4)cn3)c21 | < 0.01
O=C1NCc2nc(-c3c(F)cccc3F)c(F)c(Nc3ccc(N4CCOCC4)cn3)c21 | < 0.01
O=C1NCc2nc(-c3c(F)cccc3F)cc(Nc3ccc(N4CCN(CC(F)F)CC4)cn3)c21 | < 0.01
CC[C@]1(c2ccc(Nc3nc(-c4c(F)cccc4F)nc4c3C(=O)NC4)cc2)CCNC1=O | < 0.01
CC1COCCN1c1ccc(Nc2cc(-c3c(F)cccc3F)nc3c2C(=O)NC3)nc1 (stereo not drawn) | < 0.01
COCCNC(=O)c1ccc(Nc2cc(-c3c(F)cccc3F)nc3c2C(=O)NC3)nc1 | < 0.01
CN(c1ccc(Nc2cc(-c3c(F)cccc3F)nc3c2C(=O)NC3)nc1)C(C)(C)C | < 0.01
CC(C)Oc1ccc(Nc2nc(-c3c(F)cccc3F)nc3c2C(=O)NC3)cc1 | < 0.01
C[C@@H]1CCC[C@H](C)N1c1ccc(Nc2cc(-c3c(F)cccc3F)nc3c2C(=O)NC3)nc1 | < 0.01
CC1(C)OCCN(c2ccc(Nc3cc(-c4c(F)cccc4F)nc4c3C(=O)NC4)nc2)C1=O | < 0.01

SMILES | Ki [µM]
CCNC(=O)c1cnc(Nc2cc(-c3c(F)cccc3F)nc3c2C(=O)NC3)cc1F | < 0.01
CCNC(=O)Cc1ncc(Nc2nc(-c3c(F)cccc3F)nc3c2C(=O)NC3)cn1 | > 1
O=C1NCc2nc(-c3c(F)cccc3F)cc(Nc3ccc(NS(=O)(=O)C(F)F)cn3)c21 | < 0.01
CCNC(=O)c1ccc(Nc2nc(-c3c(F)cccc3F)nc3c2C(=O)NC3)cc1 | < 0.01
COc1ccc(Nc2cc(-c3c(F)cccc3F)nc3c2C(=O)N[C@@H]3C)nc1 | < 0.01
C[C@@H]1CCC[C@@H](C)N1c1ccc(Nc2cc(-c3c(F)cccc3F)nc3c2C(=O)NC3)nc1 | < 0.01
O=C(Cc1ccc(Nc2nc(-c3c(F)cccc3F)nc3c2C(=O)NC3)cc1)NC1CNC1 | < 0.01
O=C1NCc2nc(-c3c(F)cccc3F)cc(Nc3ccc(N4CCN(CCC(F)(F)F)CC4)cn3)c21 | < 0.01
COc1ccc(Nc2cc(-c3c(F)cccc3C#N)nc3c2C(=O)NC3)nc1 | < 0.01
CC(C)N1CCN(c2ccc(Nc3cc(-c4c(F)cccc4F)nc4c3C(=O)NC4)nc2)CC1 | < 0.01
COC(=O)C(C)c1ccc(Nc2nc(-c3c(F)cccc3F)nc3c2C(=O)NC3)cc1 (stereo not drawn) | < 0.01
CC1(O)CN(c2ccc(Nc3cc(-c4c(F)cccc4F)nc4c3C(=O)NC4)nc2)C1 | < 0.01
Cc1ccc(Nc2nc(-c3c(F)cccc3F)nc3c2C(=O)NC3)cc1 | < 0.01
C[C@@H]1COCCN1c1ccc(Nc2cc(-c3c(F)cccc3F)nc3c2C(=O)NC3)nc1 | < 0.01
C[C@H]1COC[C@H](C)N1c1ccc(Nc2cc(-c3c(F)cccc3F)nc3c2C(=O)NC3)nc1 | < 0.01
CC(C)N1CCN(c2ccc(Nc3cc(-c4c(F)cccc4F)nc4c3C(=O)NC4)nc2)C(=O)C1 | < 0.01
CN1CCN(C)[C@](C)(c2ccc(Nc3nc(-c4c(F)cccc4F)nc4c3C(=O)NC4)cc2)C1=O | < 0.01
O=C1NCc2nc(-c3c(F)cccc3F)cc(Nc3ccc(N4C5COCC4C5)cn3)c21 | < 0.01
